PubChem BioAssay AID1963852 (Molecular Pharmacology Branch, DTP, NCI, 2024)

System: 282377-053-R-J1-PDC complex spheroid viability
Test: Anticancer human tumor 282377-053-R-J1-PDC patient-derived colon adenocarcinoma cell line growth inhibition [POLQ]
Settings: for IC50: curve of first compound; for viability, T/C: stronger effect = lower value
Outline: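 Complex spheroid viability model combining PDC tumour cells with endothelial (HUVEC) and MSC stromal cells. Novobiocin, ART-558 or RP6685 were tested singly and in combination with standard and investigational anticancer drugs. Each was titrated in half-log steps from near clinical Cmax, or from 10 microM where Cmax was unknown.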
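Further: spheroids exposed to compounds for seven days.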
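Wherever viability, T/C is given: 100% = DMSO vehicle control viability.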

Q: Which IC50 (second compound 0.0316 µM) does the source give for `O=C(Nc1ccc(O)c(NS(=O)(=O)c2ccc(F)cc2)c1)c1ccc(-c2ccccc2)cc1` + Nc1ccc(C#CCN(C(=O)Cc2ncc(C(F)(F)F)cc2C(F)(F)F)c2ccc(F)cc2)nn1 here?
A: > 10 µM

Q: And the IC50 (second compound 0.1 µM)?
A: > 10 µM

Q: And the IC50 (second compound 0.316 µM)?
A: > 10 µM

Q: And the IC50 (second compound 1 µM)?
A: > 10 µM

Q: What about the IC50 (second compound 3.16 µM) of the same compound?
A: > 10 µM

Q: What about the IC50 (second compound 10 µM) of the same compound?
A: > 10 µM

Q: What about the viability, T/C (second compound 0.0316 µM, first compound 0.0316 µM) of the same compound?
A: 92.8%

Q: And the viability, T/C (second compound 0.0316 µM, first compound 0.1 µM)?
A: 115%

Q: And the viability, T/C (second compound 0.0316 µM, first compound 0.316 µM)?
A: 98.1%

Q: What about the viability, T/C (second compound 0.0316 µM, first compound 1 µM) of the same compound?
A: 102%

Q: And the viability, T/C (second compound 0.0316 µM, first compound 3.16 µM)?
A: 97.9%

Q: What about the viability, T/C (second compound 0.0316 µM, first compound 10 µM) of the same compound?
A: 107%

Q: What about the viability, T/C (second compound 0.1 µM, first compound 0.0316 µM) of the same compound?
A: 93.1%

Q: What about the viability, T/C (second compound 0.1 µM, first compound 0.1 µM) of the same compound?
A: 107%

Q: What about the viability, T/C (second compound 0.1 µM, first compound 0.316 µM) of the same compound?
A: 100%

Q: And the viability, T/C (second compound 0.1 µM, first compound 1 µM)?
A: 97.2%

Q: And the viability, T/C (second compound 0.1 µM, first compound 3.16 µM)?
A: 104%

Q: And the viability, T/C (second compound 0.1 µM, first compound 10 µM)?
A: 103%

Q: And the viability, T/C (second compound 0.316 µM, first compound 0.0316 µM)?
A: 96.9%

Q: What about the viability, T/C (second compound 0.316 µM, first compound 0.1 µM) of the same compound?
A: 101%

Q: And the viability, T/C (second compound 0.316 µM, first compound 0.316 µM)?
A: 112%

Q: And the viability, T/C (second compound 0.316 µM, first compound 1 µM)?
A: 95.4%

Q: What about the viability, T/C (second compound 0.316 µM, first compound 3.16 µM) of the same compound?
A: 100%

Q: What about the viability, T/C (second compound 0.316 µM, first compound 10 µM) of the same compound?
A: 99.8%

Q: And the viability, T/C (second compound 1 µM, first compound 0.0316 µM)?
A: 96.5%

Q: And the viability, T/C (second compound 1 µM, first compound 0.1 µM)?
A: 95.5%

Q: What about the viability, T/C (second compound 1 µM, first compound 0.316 µM) of the same compound?
A: 98.7%

Q: What about the viability, T/C (second compound 1 µM, first compound 1 µM) of the same compound?
A: 109%

Q: And the viability, T/C (second compound 1 µM, first compound 3.16 µM)?
A: 87.1%

Q: And the viability, T/C (second compound 1 µM, first compound 10 µM)?
A: 100%

Q: What about the viability, T/C (second compound 3.16 µM, first compound 0.0316 µM) of the same compound?
A: 113%

Q: What about the viability, T/C (second compound 3.16 µM, first compound 0.1 µM) of the same compound?
A: 113%

Q: And the viability, T/C (second compound 3.16 µM, first compound 0.316 µM)?
A: 103%

Q: What about the viability, T/C (second compound 3.16 µM, first compound 1 µM) of the same compound?
A: 100%

Q: What about the viability, T/C (second compound 3.16 µM, first compound 3.16 µM) of the same compound?
A: 109%

Q: What about the viability, T/C (second compound 3.16 µM, first compound 10 µM) of the same compound?
A: 117%

Q: What about the viability, T/C (second compound 10 µM, first compound 0.0316 µM) of the same compound?
A: 124%

Q: What about the viability, T/C (second compound 10 µM, first compound 0.1 µM) of the same compound?
A: 108%

Q: What about the viability, T/C (second compound 10 µM, first compound 0.316 µM) of the same compound?
A: 109%

Q: And the viability, T/C (second compound 10 µM, first compound 1 µM)?
A: 133%

Q: And the viability, T/C (second compound 10 µM, first compound 3.16 µM)?
A: 110%

Q: What about the viability, T/C (second compound 10 µM, first compound 10 µM) of the same compound?
A: 139%
